Values of other authors in patent publication US20230000814A1, “PHARMACEUTICAL COMPOSITION COMPRISING STEROID COMPOUND AND OLOPATADINE” (TOKO YAKUHIN KOGYO CO., LTD., priority 2019, published 2023).
Like-named read-outs stand apart in the source and are kept apart here.

solubility of olopatadine (around neutral pH): very low
solubility of olopatadine (concentration 0.2% or more as olopatadine free base, solution having pH of 5 or higher): not soluble
SMILES: CN(C)CC/C=C1/c2ccccc2COc2ccc(CC(=O)O)cc21 [olopatadine, Olopatadine]
